{"source": "patent US6664400B2", "about": "(dated 2003)"}
{"molecule": "O=C1[C@H]2C[C@H](F)CN2C(=O)N1c1cc(NS(=O)(=O)CCl)c(Cl)cc1F", "values": [{"measurement": "melting point", "result": "168 to 170", "unit": "°C"}]}
